Test results reported in patent US8952024B2, “Herbicidal pyrimidone derivatives” (E I du Pont de Nemours and Company, priority 2009, dated 2015).

Tests used:
Assay in all cases: Test B pre-/postemergence plant response
Type in all cases: in vivo
[1] = test system: lambsquarters (Chenopodium album)
Outline: (§1)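 Compound in solvent + surfactant applied pre-em (loam/sand) or post-em (plants 2–18 cm, peat medium); greenhouse hold 13–15 days; visual 0–100 control score.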

[2] = test system: Surinam grass (Brachiaria decumbens)
Outline: as §1

[3] = test system: nightshade (eastern black nightshade, Solanum ptycanthum); settings: Preemergence
Outline: as §1

[4] = test system: yellow nutsedge (Cyperus esculentus)
Outline: as §1

[5] = test system: large crabgrass (Digitaria sanguinalis)
Outline: as §1

[6] = test system: cocklebur (Xanthium strumarium)
Outline: as §1

[7] = test system: wild oat (Avena fatua)
Outline: as §1

[8] = test system: galium (catchweed bedstraw, Galium aparine); settings: Preemergence
Outline: as §1

[9] = test system: kochia (Kochia scoparia)
Outline: as §1

[10] = test system: woolly cupgrass (Eriochloa villosa)
Outline: as §1

[11] = test system: sunflower (common oilseed sunflower, Helianthus annuus); settings: Preemergence
Outline: as §1

[12] = 31 g ai/ha, postemergence, scale 0 to 100, 0 is no effect, 100 is complete control
[13] = 62 g ai/ha, postemergence, 0 is no effect, 100 is complete control, 13 to 15 days
[14] = Postemergence, 125 g ai/ha, visual rating after 13 to 15 days, scale 0 (no effect) to 100 (complete control)
[15] = Postemergence, 250 g ai/ha, scale 0 to 100 (0 no effect, 100 complete control)
[16] = Preemergence, 31 g ai/ha, scale 0 to 100 (0 no effect, 100 complete control)
[17] = Preemergence, 62 g ai/ha, scale 0 to 100, 0 no effect, 100 complete control
[18] = Preemergence, 125 g ai/ha, scale 0 to 100, 0 no effect, 100 complete control
[19] = Preemergence, 250 g ai/ha, 0 to 100 scale
[20] = 31 g ai/ha, scale 0 to 100 (0 no effect, 100 complete control)
[21] = 62 g ai/ha, scale 0 to 100, 0 no effect, 100 complete control
[22] = 125 g ai/ha, scale 0 to 100, 0 no effect, 100 complete control

For `CCCCn1c(CCC)ncc(C(=O)C2=C(O)CCCC2=O)c1=O` [Compound 75], the “Plant response rating, Lambsquarters” value [1, 12] was 98, the “Lambsquarters plant response rating (0 to 100 scale)” value [1, 13] was 100 and the “Plant response rating, Lambsquarters” value [1, 14] was 100. For the same compound, the “Plant response rating, Lambsquarters” value [1, 15] was 100, the “Plant response rating, Lambsquarters” value [1, 16] was 98 and the “Plant response rating, Lambsquarters” value [1, 17] was 100. The “Plant response rating, Lambsquarters” value [1, 18] was 100, the “Lambsquarters plant response rating” value [1, 19] was 100 and the “Plant response rating, Surinam Grass” value [2, 12] was 50. The “Surinam Grass plant response rating (0 to 100 scale)” value [2, 13] was 50, the “Plant response rating, Surinam Grass” value [2, 14] was 70 and the “Plant response rating, Surinam Grass” value [2, 15] was 85. The “Plant response rating, Surinam Grass” value [2, 16] was 40, the “Plant response rating, Surinam Grass” value [2, 17] was 60 and the “Plant response rating, Surinam Grass” value [2, 18] was 60. The “Surinam Grass plant response rating” value [2, 19] was 75, the “Plant response rating, Nightshade” value [3, 20] was 95 and the “Plant response rating, Nightshade” value [3, 21] was 98. For the same compound, the “Plant response rating, Nightshade” value [3, 22] was 98, the “Nightshade plant response rating” value ([3]; 250 g ai/ha, 0 to 100 scale) was 100 and the “Plant response rating, Nutsedge, Yellow” value [4, 12] was 10. The “Nutsedge, Yellow plant response rating (0 to 100 scale)” value [4, 13] was 65, the “Plant response rating, Nutsedge, Yellow” value [4, 14] was 70 and the “Plant response rating, Nutsedge, Yellow” value [4, 15] was 75. For the same compound, the “Plant response rating, Nutsedge, Yellow” value [4, 16] was 60, the “Plant response rating, Nutsedge, Yellow” value [4, 17] was 80 and the “Plant response rating, Nutsedge, Yellow” value [4, 18] was 90. For the same compound, the “Nutsedge, Yellow plant response rating” value [4, 19] was 90, the “Plant response rating, Crabgrass, Large” value [5, 12] was 95 and the “Crabgrass, Large plant response rating (0 to 100 scale)” value [5, 13] was 98. The “Plant response rating, Crabgrass, Large” value [5, 14] was 100, the “Plant response rating, Crabgrass, Large” value [5, 15] was 100 and the “Plant response rating, Crabgrass, Large” value [5, 16] was 98. For the same compound, the “Plant response rating, Crabgrass, Large” value [5, 17] was 100, the “Plant response rating, Crabgrass, Large” value [5, 18] was 100 and the “Crabgrass, Large plant response rating” value [5, 19] was 100. The “Plant response rating, Cocklebur” value [6, 12] was 40, the “Cocklebur plant response rating (0 to 100 scale)” value [6, 13] was 80 and the “Plant response rating, Cocklebur” value [6, 14] was 95. For the same compound, the “Plant response rating, Cocklebur” value [6, 15] was 95, the “Plant response rating, Cocklebur” value [6, 16] was 10 and the “Plant response rating, Cocklebur” value [6, 17] was 20. The “Plant response rating, Cocklebur” value [6, 18] was 75, the “Cocklebur plant response rating” value [6, 19] was 90 and the “Plant response rating, Oat, Wild” value [7, 12] was 0. For the same compound, the “Oat, Wild plant response rating (0 to 100 scale)” value [7, 13] was 20, the “Plant response rating, Oat, Wild” value [7, 14] was 50 and the “Plant response rating, Oat, Wild” value [7, 15] was 60. The “Plant response rating, Oat, Wild” value [7, 16] was 0, the “Plant response rating, Oat, Wild” value [7, 17] was 0 and the “Plant response rating, Oat, Wild” value [7, 18] was 0. The “Oat, Wild plant response rating” value [7, 19] was 0, the “Plant response rating, Galium” value [8, 20] was 60 and the “Plant response rating, Galium” value [8, 21] was 85. For the same compound, the “Plant response rating, Galium” value [8, 22] was 95, the “Galium plant response rating” value ([8]; 250 g ai/ha, 0 to 100 scale) was 98 and the “Plant response rating, Kochia” value [9, 12] was 75. For the same compound, the “Kochia plant response rating (0 to 100 scale)” value [9, 13] was 95, the “Plant response rating, Kochia” value [9, 14] was 100 and the “Plant response rating, Kochia” value [9, 15] was 100. For the same compound, the “Plant response rating, Kochia” value [9, 16] was 80, the “Plant response rating, Kochia” value [9, 17] was 90 and the “Plant response rating, Kochia” value [9, 18] was 90. For the same compound, the “Kochia plant response rating” value [9, 19] was 95, the “Plant response rating, Cupgrass, Woolly” value [10, 12] was 10 and the “Cupgrass, Woolly plant response rating (0 to 100 scale)” value [10, 13] was 55. The “Plant response rating, Cupgrass, Woolly” value [10, 14] was 55, the “Plant response rating, Cupgrass, Woolly” value [10, 15] was 80 and the “Plant response rating, Cupgrass, Woolly” value [10, 16] was 5. For the same compound, the “Plant response rating, Cupgrass, Woolly” value [10, 18] was 55, the “Cupgrass, Woolly plant response rating” value [10, 19] was 75 and the “Plant response rating, Sunflower” value [11, 20] was 30. The “Plant response rating, Sunflower” value [11, 21] was 55, the “Plant response rating, Sunflower” value [11, 22] was 75 and the “Sunflower plant response rating” value ([11]; 250 g ai/ha, 0 to 100 scale) was 85.
